According to a melting point compilation (Tetko et al.; mined from patent text by program, amines drawn as free bases though some values may be those of a salt):

| Compound | melting point [°C] |
| --- | --- |
| CCOC(=O)c1ccc(N=C(Nc2ccc(C(=O)OCC)cc2)c2ccc(C#N)cc2)cc1 | 205 to 213 |
| O=C1Nc2ccc(F)cc2C1CCCCN1CCN(c2ccc(F)cc2)CC1 (stereo not given) | 135 to 137 |
| CC1(C)SC2C(NC(c3ccccc3)(c3ccccc3)c3ccccc3)C(=O)N2C1c1nnn[nH]1 (stereo not given) | 133 to 136 |
| CN(N)C(=O)Nc1ccccc1Oc1ccccc1 | 117 to 119 |
| CCCCCCCCCCCCn1nnc(CCC(=O)Nc2c(C(C)C)cccc2C(C)C)n1 | 41 to 43 |
| CCCn1c(=O)nc(SC)c2c1ncn2C | 225 to 226 |
| O=C1CCC(N2C(=O)c3cccc(OCc4ccc(CN5CCC(c6ccc(Cl)cc6)CC5)cc4)c3C2=O)C(=O)N1 (stereo not given) | 236 to 238 |
| Cc1c(Br)cccc1N1Cc2ccc(C(C)(C)C)cc2C1=O | 120 to 122 |
| Cc1ccc(S(=O)(=O)NC(=O)OCCc2ccc(-n3c(CCCN4CCCC4=O)nc4cc(C(F)(F)F)c(Cl)cc43)cc2)cc1 | 85 to 90 |
| Clc1ccc(COC(CNc2ccc(Cl)cc2Cl)Cn2ccnc2)cc1 (stereo not given) | 93 to 95 |
| CCCCCCCCCC(=O)N(O)CCCCCC | 37 |
| CC(CC(C(=O)N(C)C)(c1ccccc1)c1ccccc1)N1CCC(NC(=O)c2cnc[nH]2)C(O)C1 (stereo not given) | 155 |
| CN(C)C(N)=Nc1cc(F)ccc1N1CCOCC1 | 137 to 138 |
| COc1cccc(-n2c(=O)oc3ccc(-c4ccc(F)cc4F)cc3c2=O)c1 | 160 to 161 |
| CCCCCCc1cc2c(s1)-n1c(C)nnc1CN=C2c1ccc(OC)cc1 | 97 to 99 |
| COc1cc(COc2nn(C)cc2CO)ccc1OCc1nc(-c2ccccc2)oc1C | 108 to 109 |
| CC(=O)N1CCC(C)(C)C(=O)c2ccc(Cl)cc2CCC1=O | 113 to 115 |
| CC(=Cc1ccc(N(C)C)cc1C)[N+](=O)[O-] | 75 to 76 |
| COc1cc2c(c(OC(C)=O)c1OC)=NC(=O)C(=O)N=2 | 321 to 322 |
| CCN=C1SC(=NOC(=O)N(C)SC(Cl)(Cl)Cl)C(C)(C)S1 | 69 to 71 |
| CCCCC1OC(=O)c2cc(NC(C)=O)ccc21 (stereo not given) | 138 to 139 |
| CC(C)COC(=O)N=C(N=C1NC(=O)C(=O)N1c1ccc(Cl)c(Cl)c1)NC(C)C | 260 |
| S=C(NCCCN1CCCC1)NCCN(Cc1ccc(Cl)c(Cl)c1)c1ccc(Br)cn1 | 123 to 125 |

| Compound | melting point [°C] |
| --- | --- |
| NS(=O)(=O)CCCSc1ccc2ncnn2n1 | 130 to 131 |
| CCNC1(c2ccccc2Cl)C(=O)N(Cc2ccc(C(=O)NC(C)(C)CO)cc2)c2ccc(Cl)cc21 (stereo not given) | 170 to 172 |
| COc1cccc2c1OC(C(=O)O)CO2 (stereo not given) | 131 to 132 |
| CC(C)(C)CNS(=O)(=O)c1cccc([N+](=O)[O-])c1 | 99 |
| COc1ccc(CCOC(c2ccccc2)(c2ccccc2)C(O)C(=O)O)cc1OC (stereo not given) | 133 to 135 |
| COC(=O)C1(C(=O)OC)CN(C(=O)OC(C)(C)C)c2cc([N+](=O)[O-])ccc21 | 132 |
| COc1ccc2c(c1)C1CCN(C)C(C1)N2C (stereo not given) | 72 to 73.5 |
| COC(=O)c1cccc(OCCCOc2cc3c(cc2O)CCO3)c1 | 93 |
| CCNC(=O)Nc1ccccc1 | 99 to 100 |
| COc1ccc(-c2nc(C)nn2-c2ccc(S(N)(=O)=O)cc2)cc1OC | 176 to 178 |
| O=C(Nc1cccc(S(=O)(=O)Nc2ccccc2)c1)NC1N=C(c2ccccc2F)c2ccccc2N(CC(=O)N2CC3CCC(CC3)C2)C1=O (racemic) | 181 to 188 |
| O=C1NCCN1Cc1cccc2ccccc12 | 121 to 125 |
| Cc1c2ccccc2c(-c2cc(Br)c(OC(Cc3ccccc3)C(=O)O)c(Br)c2)c2c1sc1ccccc12 (stereo not given) | 117 to 122 |
| CC(=O)Oc1cc(OCC(=O)c2ccc3c(c2)C(C)(C)CCC3(C)C)ccc1C(=O)OCc1ccccc1 | 137 to 138 |
| CC(=O)N1CCC(Oc2ccccc2N2CCCCC2)CC1 | 69 to 70 |
| Clc1ccccc1-c1cnccn1 | 38 to 39 |
| CC(C)(C)c1ccc2c(c1)C(=O)NC2 | 142 to 144 |
| COc1cc(CCCC2SC(=O)NC2=O)ccc1OCc1coc(/C=C/c2ccccc2)n1 (stereo not given) | 154 to 155 |
| CCOC(=O)c1cnc2sc(-c3ccc(OC)cc3)c(CN(C)Cc3ccccc3)c2c1O | 175 to 177 |
| CS(=O)(=O)c1ccc(C2=C(c3ccc(F)cc3)CC(C(F)(F)F)(C(F)(F)F)C2)cc1 | 138 |
| c1ccc(Nc2nc(-c3cccs3)nc3ccccc23)cc1 | 137 to 139 |
| Clc1ccc(C(=Cc2ccc(Cl)cc2Cl)CBr)cc1 | 128 |
| N=C(Nc1ccc(CCN)cc1)c1cccs1 | 134 to 137 |

Now from value to compound:

| melting point [°C] | Compound |
| --- | --- |
| 216 to 218 | CNC(=O)C1CCC(c2csc(NC(=N)N)n2)C1 (stereo not given) |
| 160 to 161 | CCCCCCOc1ccc(NC(=O)c2cn(-c3ccc(F)cc3)nc2C)cc1C#N |
| 118 to 120 | COc1cc2c(cc1OC)C(C=Cc1ccccc1)=NN(C(C)=O)C(C)C2 (stereo not given) |
| 99 to 101 | COc1cccc(OCCCCC(=O)O)c1C=O |
| 110 to 118 | CCCCN(CCC12CC3CC(CC(C3)C1)C2)C(=O)NCCCc1ccncc1 |
| 94 to 96 | COC(=O)C(Oc1ccc(Cl)c2c1CCC2)c1ccc(Oc2ccc(Cl)cc2)cc1 (stereo not given) |
| 127 to 128 | COC(=O)CON=C(C(=O)O)C(=O)CCl |
| 136 to 139 | COc1cc(OC)nc(NC(=O)NS(=O)(=O)Oc2ccccc2)n1 |
| 168 to 170 | CC(C)N(CCC(CCN(C(C)C)C(C)C)(C(N)=O)c1c(Cl)cccc1Cl)C(C)C |
| 171 to 172 | COC(=O)Nc1ccc(N)c([N+](=O)[O-])c1 |
| 204 to 207 | O=C1CCCN2N=C(c3ccc(Br)cc3)SC2=N1 |
| 267 | COc1ccc(CC#Cc2ccc3c(c2)c(=O)n(Cc2ccccc2)c2nncn32)cc1 |
| 96 to 100 | c1ccc(C(N=C2CCCC2)c2ccccc2)cc1 |
| > 235 | O=C(O)c1ccc2c(Cl)ccnc2c1 |
| 113 to 114 | C=CCOc1c(I)cc(C(=O)CCC(=O)c2cc(OC)c(OC)c(OC)c2)cc1OC |
| 105 | COCc1nc(Cl)c(Oc2cc(OC)ccc2Cl)c(Cl)n1 |
| 197 to 199 | CCC(CC)N1C(=O)NCc2c1cc(C)nc2Oc1c(C)cc(C)cc1C |
| 136 to 138 | COC(=O)C1C(c2ccc(F)c(C)c2)=CCCC1(C)C (stereo not given) |
| 199 to 201 | Nc1ncnc2c1nc(Br)n2Cc1ccccc1 |
| 167 to 168 | O=c1c2ccccc2[nH]n1CSc1ccccc1 |
| 58 | NCCCCNC(=O)COc1ccc2ccccc2c1 |
| 138 to 139 | CC(NC(=O)C1(Cl)C(C)(C)C1(Cl)Cl)c1ccc(Cl)cc1 (stereo not given) |
| > 280 | CC(C)(C)c1cc(-n2ccc(=O)[nH]c2=O)cc(Br)c1Cl |
| 229 to 230 | Nc1ncc(-c2ccc(=O)n(Cc3ccccc3)n2)c(-c2ccccc2)n1 |
| 131 | COC(=O)C(CSC(c1ccccc1)c1ccccc1)NC(=O)C(=O)NCCSC(c1ccccc1)c1ccccc1 (stereo not given) |
| 249 to 252 | Cn1cc2c3c(c(F)cc2n1)CCC3=CC#N |
| 133 to 141 | COCC1CN(c2ccc3cc(OCCS(C)=O)ccc3c2)C(=O)O1 (stereo not given) |

| melting point [°C] | Compound |
| --- | --- |
| 109 | O=C(NCCc1ccccn1)N(c1ccccc1)c1ccccc1 |
| 162 to 163 | O=C(O)COc1c(Br)cc(C(=O)c2c(Cc3ccccc3)sc3ccccc23)cc1Br |
| 182 to 183 | O=C(O)c1ccccc1-c1ccc(-c2ccc(C(F)(F)F)cc2)o1 |
| 138 to 142 | CC(C#Cc1ccc(C#N)cc1)N1C(=O)c2ccccc2C1=O (stereo not given) |
| 47 to 48.5 | CC(C)(C)OC(=O)[C@@H]1C[C@H](C(=O)OC(C)(C)C)N1 |
| 249 to 251 | CS(=O)(=O)Nc1cccc(S(=O)(=O)N2CCC(Nc3nc(Nc4cccc(C(F)(F)F)c4)nc(OCC(F)(F)F)n3)CC2)c1 |
| 139 | Cc1ccc(-c2nccc(-c3ccccc3)n2)cc1[N+](=O)[O-] |
| 112 to 113 | COc1cc2ccc(CCOS(C)(=O)=O)cc2cc1OC |
| 188 to 190 | COc1ccccc1N1CCN(CCn2cnc3sc(C(=O)N(C)C)c(C)c3c2=O)CC1 |
| 207 | COc1ccc(C=C(C=O)C(C=O)=Cc2ccc(OC)cc2)cc1 |
| 180 | CS(=O)(=O)c1ccc(N2C[C@H](COc3ccon3)OC2=O)cc1 |
| 98 to 100 | CC(=O)c1ccc2ccc3c(c2c1)C(CCl)CN3C(=O)OC(C)(C)C (stereo not given) |
| 58 to 63 | CCCCCCCCC1(CCCCCCCC)c2cc(N)ccc2-c2ccc(N)cc21 |
| 113 to 114 | CC(=O)OC1CC2=CC=C3C4CCC(C(C)CCCC(C)C)C4(C)CCC3C2(C)C(OC(C)=O)C1 (stereo not given) |
| 169 to 170 | COc1ccc(CC2CCN(CCS(=O)c3ccc4[nH]c(=O)oc4c3)CC2)cc1 (stereo not given) |
| 64 to 65 | CNc1ccc(F)c(C#N)c1 |
| 82 to 85 | CCCC(CCC)n1ccc(=O)c2c(Cl)cc(C)nc21 |
| 181 to 182 | O=c1c2cc3ccccc3cc2oc2cc(OCC3CO3)cc(OCC3CO3)c12 (stereo not given) |
| 192 to 195 | CN1CC(C(Oc2ccccc2[N+](=O)[O-])c2ccccc2)OCC1=O (stereo not given) |
| 172 to 174 | CN(C)CC(O)c1c(-c2ccc3ccccc3c2)[nH]c2ccccc12 (stereo not given) |
| 113 to 115 | CCOC(=O)c1ccc(-c2ccc(-c3ccccc3)s2)s1 |
| 205 to 208 | COC(=O)C1CCC2C3CCC4CC(O)C(Br)CC4(C)C3C(=O)CC12C (stereo not given) |
| 45 to 50 | CCOC(=O)CC(=O)c1ccc(-c2ccc(Cl)cc2)cc1 |
| 163 to 165 | CNc1c(C#N)cnn1-c1ccc(Cl)c(Cl)c1Cl |
| 315 to 317 | O=C(Nc1ccc(-c2cnc(-c3ccc(NC(=O)C4CCCCC4)cc3)[nH]2)cc1)c1cccnc1 |
| 110 | COC(=O)c1ccc(F)c2c1CC(N(CCCc1c[nH]c3ccc(F)cc13)C1CCC1)CO2 (stereo not given) |
| 154 to 155 | CCC(OC(=O)C1CC1)c1ccc(Cl)c2nc3n(c12)CCCN3c1ncc(Cl)cc1Cl (stereo not given) |
